In PubChem BioAssay (NCI):
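At the GI50, growth is halved. TGI denotes the concentration required for complete inhibition of growth.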

Experiments:
Experiment in all cases: DTP human tumour cell line panel, 384-well format; in the data active = GI50 below about 0.43 µM; inactive = the rest
K-562 leukemia = tested on: K-562 leukemia
SK-OV-3 ovarian = tested on: SK-OV-3 ovarian
HL-60(TB) leukemia = tested on: HL-60(TB) leukemia
SN12C renal = tested on: SN12C renal
DU-145 prostate = tested on: DU-145 prostate
A498 renal = tested on: A498 renal
MDA-MB-231 breast = tested on: MDA-MB-231 breast
COLO 205 colon = tested on: COLO 205 colon
786-0 renal = tested on: 786-0 renal
MOLT-4 leukemia = tested on: MOLT-4 leukemia
HS 578T breast = tested on: HS 578T breast
NCI-H460 NSCLC = tested on: NCI-H460 NSCLC
HCT-116 colon = tested on: HCT-116 colon
OVCAR-4 ovarian = tested on: OVCAR-4 ovarian
HOP-62 NSCLC = tested on: HOP-62 NSCLC
NCI-H226 lung = tested on: NCI-H226 lung
SF-295 CNS = tested on: SF-295 CNS
OVCAR-8 ovarian = tested on: OVCAR-8 ovarian
U251 glioblastoma = tested on: U251 glioblastoma
MDA-MB-435 melanoma = tested on: MDA-MB-435 melanoma
UO-31 renal = tested on: UO-31 renal
SK-MEL-5 melanoma = tested on: SK-MEL-5 melanoma
NCI-H522 lung = tested on: NCI-H522 lung
NCI/ADR-RES ovarian = tested on: NCI/ADR-RES ovarian
SK-MEL-28 melanoma = tested on: SK-MEL-28 melanoma
CAKI-1 renal = tested on: CAKI-1 renal
SNB-19 CNS = tested on: SNB-19 CNS
SR leukemia = tested on: SR leukemia
MDA-MB-468 breast = tested on: MDA-MB-468 breast
RPMI-8226 leukemia = tested on: RPMI-8226 leukemia
LOX IMVI melanoma = tested on: LOX IMVI melanoma
HT29 colon = tested on: HT29 colon
A549 NSCLC = tested on: A549 NSCLC
UACC-257 melanoma = tested on: UACC-257 melanoma
IGROV1 ovarian = tested on: IGROV1 ovarian
KM12 colon = tested on: KM12 colon
NCI-H23 lung = tested on: NCI-H23 lung
SNB-75 CNS = tested on: SNB-75 CNS
SF-268 CNS = tested on: SF-268 CNS
RXF 393 renal = tested on: RXF 393 renal
PC-3 prostate = tested on: PC-3 prostate
OVCAR-5 ovarian = tested on: OVCAR-5 ovarian
BT-549 breast = tested on: BT-549 breast
MALME-3M melanoma = tested on: MALME-3M melanoma
HCC-2998 colon = tested on: HCC-2998 colon
M14 melanoma = tested on: M14 melanoma
SF-539 CNS = tested on: SF-539 CNS
NCI-H322M lung = tested on: NCI-H322M lung
OVCAR-3 ovarian = tested on: OVCAR-3 ovarian
T-47D breast = tested on: T-47D breast
ACHN renal = tested on: ACHN renal
CCRF-CEM leukemia = tested on: CCRF-CEM leukemia
TK-10 renal = tested on: TK-10 renal
SW-620 colon = tested on: SW-620 colon
HCT-15 colon = tested on: HCT-15 colon
EKVX NSCLC = tested on: EKVX NSCLC
MCF7 breast = tested on: MCF7 breast
HOP-92 NSCLC = tested on: HOP-92 NSCLC

Cn1cc(-c2ccc3nnc(C(F)(F)c4ccc5ncccc5c4)n3n2)cn1
36.4 µM: TGI (MOLT-4 leukemia)
97.8 µM: TGI (RPMI-8226 leukemia)
> 100 µM: TGI (K-562 leukemia) | TGI (SK-OV-3 ovarian) | TGI (HL-60(TB) leukemia) | TGI (SN12C renal) | TGI (DU-145 prostate) | TGI (A498 renal) | TGI (MDA-MB-231 breast) | TGI (COLO 205 colon) | TGI (786-0 renal) | TGI (HS 578T breast) | TGI (NCI-H460 NSCLC) | TGI (HCT-116 colon) | TGI (OVCAR-4 ovarian) | TGI (HOP-62 NSCLC) | TGI (NCI-H226 lung) | TGI (SF-295 CNS) | TGI (OVCAR-8 ovarian) | TGI (U251 glioblastoma) | TGI (MDA-MB-435 melanoma) | TGI (UO-31 renal) | TGI (SK-MEL-5 melanoma) | TGI (NCI-H522 lung) | TGI (NCI/ADR-RES ovarian) | TGI (SK-MEL-28 melanoma) | TGI (CAKI-1 renal) | TGI (SNB-19 CNS) | TGI (SR leukemia) | TGI (LOX IMVI melanoma) | TGI (HT29 colon) | TGI (A549 NSCLC) | TGI (UACC-257 melanoma) | TGI (IGROV1 ovarian) | TGI (KM12 colon) | TGI (NCI-H23 lung) | TGI (SNB-75 CNS) | TGI (SF-268 CNS) | TGI (PC-3 prostate) | TGI (OVCAR-5 ovarian) | TGI (BT-549 breast) | TGI (MALME-3M melanoma) | TGI (HCC-2998 colon) | TGI (M14 melanoma) | TGI (SF-539 CNS) | TGI (NCI-H322M lung) | TGI (OVCAR-3 ovarian) | TGI (T-47D breast) | TGI (ACHN renal) | TGI (CCRF-CEM leukemia) | TGI (TK-10 renal) | TGI (SW-620 colon) | TGI (HCT-15 colon) | TGI (EKVX NSCLC) | TGI (MCF7 breast) | TGI (HOP-92 NSCLC)
59.6 µM: TGI (MDA-MB-468 breast)
72.7 µM: TGI (RXF 393 renal)
inactive: GI50 (K-562 leukemia) 53.6 µM | GI50 (SK-OV-3 ovarian) 75.5 µM | GI50 (HL-60(TB) leukemia) 36.3 µM | GI50 (SN12C renal) 45.2 µM | GI50 (DU-145 prostate) 59.1 µM | GI50 (A498 renal) 63.2 µM | GI50 (MDA-MB-231 breast) 53.5 µM | GI50 (COLO 205 colon) 99 µM | GI50 ([…]-0 renal) 43.9 µM | GI50 (MOLT-4 leukemia) 17.6 µM | GI50 (HS 578T breast) 35.3 µM | GI50 (NCI-H460 NSCLC) 45.8 µM | GI50 (HCT-116 colon) 49.2 µM | GI50 (OVCAR-4 ovarian) 59.9 µM | GI50 (HOP-62 NSCLC) 41.2 µM | GI50 (NCI-H226 lung) 56.3 µM | GI50 (SF-295 CNS) 2.06 µM | GI50 (OVCAR-8 ovarian) 61.4 µM | GI50 (U251 glioblastoma) 66.3 µM | GI50 (MDA-MB-435 melanoma) > 100 µM | GI50 (UO-31 renal) 58.6 µM | GI50 (SK-MEL-5 melanoma) 29.7 µM | GI50 (NCI-H522 lung) 41.6 µM | GI50 (NCI/ADR-RES ovarian) 41.4 µM | GI50 (SK-MEL-28 melanoma) > 100 µM | GI50 (CAKI-1 renal) 46.4 µM | GI50 (SNB-19 CNS) 67.3 µM | GI50 (SR leukemia) 24.2 µM | GI50 (MDA-MB-468 breast) 10.2 µM | GI50 (RPMI-8226 leukemia) 23.7 µM | GI50 (LOX IMVI melanoma) 68.5 µM | GI50 (HT29 colon) 95.3 µM | GI50 (A549 NSCLC) 85.5 µM | GI50 (UACC-257 melanoma) > 100 µM | GI50 (IGROV1 ovarian) 58.2 µM | GI50 (KM12 colon) 47.8 µM | GI50 (NCI-H23 lung) 25 µM | GI50 (SNB-75 CNS) 43.1 µM | GI50 (SF-268 CNS) 98.1 µM | GI50 (RXF 393 renal) 25.2 µM | GI50 (PC-3 prostate) 52.9 µM | GI50 (OVCAR-5 ovarian) 59.8 µM | GI50 (BT-549 breast) 38.1 µM | GI50 (MALME-3M melanoma) 65 µM | GI50 (HCC-2998 colon) 49.9 µM | GI50 (M14 melanoma) > 100 µM | GI50 (SF-539 CNS) 56.3 µM | GI50 (NCI-H322M lung) 62.9 µM | GI50 (OVCAR-3 ovarian) 61.8 µM | GI50 (T-47D breast) 41.1 µM | GI50 (ACHN renal) 46.1 µM | GI50 (CCRF-CEM leukemia) 48.5 µM | GI50 (TK-10 renal) 47.6 µM | GI50 (SW-620 colon) > 100 µM | GI50 (HCT-15 colon) 60.5 µM | GI50 (EKVX NSCLC) 52.6 µM | GI50 (MCF7 breast) 41.8 µM | GI50 (HOP-92 NSCLC) 39.7 µM
